Laboratory results published in US20260308128A1, “BETA-ELEMENE DERIVATIVE CONTAINING PHOTOAFFINITY GROUP DIAZIRINE, AND PREPARATION METHOD AND USE THEREOF AS PHOTOAFFINITY MOLECULAR PROBE” (HANGZHOU NORMAL UNIVERSITY, priority 2022, published 2026).
Like-named read-outs stand apart in the source and are kept apart here.

Experiments:
[1] = test system: A549 human non-small cell lung cancer cells; assay: Tumor cell proliferation inhibition (CCK-8), A549; type: cell-based; conditions: for IC50: Homo sapiens, read-out: IC50 A549; for IC50 times lower than that of β-elemene: human A549 lung cancer cells, versus β-elemene
Experimental: (§1) Human liver cancer cell Huh1, human lung cancer cell A549, and human brain glioma cell U87-MG.
(§2) • (1) A cell laboratory was routinely disinfected and a clean bench was subjected to ultraviolet radiation for more than 30 min. • (2) A culture solution (DMEM) and 0.25% trypsin were preheated in a constant-temperature water bath at 37° C. for 20 min, and dimethyl sulfoxide (DMSO) was refrigerated in a refrigerator at 4° C. for 30 min. • (3) A cryopreserved tube was taken out of a liquid nitrogen storage tank, immediately placed in a 37° C. water bath and shaken rapidly until s cryopreserved liquid was completely thawed. • (4) A cell suspension was transferred into a centrifuge tube, the culture solution was slowly added thereto, and the centrifuge tube was transferred into a centrifuge for centrifugation (120×g, 5 min). • (5) A cell concentration was adjusted with the culture solution, and resulting adjusted cells were shaken well, and placed in a 37° C., 5% CO2 incubator for culture. • (6) After the cells had attached for 24 h, the culture solution thereof was changed. When a cell density reached 80% to 90%, the cells were digested with trypsin and then subcultured.
(§3) • (1) A A549 cell suspension was adjusted to 5×10^4 cells/mL using a DMEM culture medium. […] The cells were cultured in the incubator for 1 h and an absorbance at 450 nm was measured using a THERMO FISHER Multiskan FC microplate reader. • (5) IBM SPSS Statistics 22.0 software was used to plot an S-shaped dose-survival curve using a non-linear regression model, and a survival rate and an inhibition rate were calculated using the following formulas:
(§4) [formula] [formula] • As: absorbance of the experimental well (culture medium containing cells, CCK-8, and the drug to be tested) • Ac: absorbance of the control well (culture medium containing cells, CCK-8, and no drug to be tested) • Ab: absorbance of the blank wells (culture medium without cells and drug to be tested, CCK-8)
(§5) According to the above experimental method, CCK-8 was used to determine the proliferation inhibitory effects of the isolated and purified β-elemene monomer, elemene photoaffinity probe and control compounds on three human cancer cells, namely A549 human non-small cell lung cancer cells, U87-MG human malignant glioma cells, and Huh1 human liver cancer cells.

[2] = test system: U87-MG human malignant glioma cells; assay: Tumor cell proliferation inhibition (CCK-8), U87-MG; type: cell-based; conditions: for IC50: Homo sapiens, U-87 MG, 48 h, read-out: IC50 U87; for IC50 times lower than that of β-elemene: human U87-MG malignant glioma cells, versus β-elemene
Experimental: as §1, §2, §3, §4, §5

[3] = test system: Huh1 human liver cancer cells; assay: Tumor cell proliferation inhibition (CCK-8), Huh1; type: cell-based; conditions: for IC50: Homo sapiens, read-out: IC50 Huh1; for IC50 times lower than that of β-elemene: human Huh1 liver cancer cells, versus β-elemene
Experimental: as §1, §2, §3, §4, §5

[4] = test system: Huh1 liver cancer cells; assay: Pre-targeted imaging using molecular probe in living cells (365 nm photo-crosslinking, N3-TAMRA click, confocal microscopy); type: cell-based, human
Experimental: In order to determine whether the molecular probe could enter the cell and explore the binding site of the targeted biomacromolecule thereof, the experiment was conducted as follows.
DMEM culture medium, PBS, 4% paraformaldehyde tissue cell fixative, Triton X-100, 5% BSA blocking solution, DAPI staining solution, Cu2SO4, sodium ascorbate, THPTA, N3-TAMRA
• (1) 10^5 Huh1 liver cancer cells were inoculated into glass-bottomed culture dishes and cultured in a 37° C., 5% CO2 incubator until the cells adhered to wall. • (2) DMEM culture medias containing different drug concentrations were added to the culture dishes and incubated overnight in the 37° C., 5% CO2 incubator. • (3) After removing the drug-containing culture mediums, resulting cells were washed with pre-cooled PBS ([…]) for 3 min, placed on ice, and irradiated at 365 nm for 15 min. • (4) Resulting irradiated cells were treated with 1 mL of 4% paraformaldehyde tissue cell fixative for 15 min, the paraformaldehyde tissue cell fixative was removed, and resulting cells were washed with pre-cooled PBS. • (5) Resulting washed cells were permeabilized with 500 μL of 0.1% Triton X-100 in PBS for 10 min, then blocked with 1 mL of 5% BSA blocking solution for 30 min, the blocking solution was removed, and resulting cells were washed with pre-cooled PBS (3×1 mL). • (6) 200 μL of freshly prepared Click reaction solution (20 μM N3-TAMRA, 400 μM Cu2SO4, 400 μM THPTA, 2 mM sodium ascorbate) was added to washed cells obtained in step • (5), incubated under shaking at room temperature for 2 h, the reaction solution was removed, and resulting cells were washed with pre-cooled PBS (3×1 mL) for 3 min. • (7) 200 μL of DAPI staining solution was added to washed cells obtained in step (6) and stained for 6 min, the staining solution was removed, and resulting cells were washed with pre-cooled PBS (3×1 mL) for 3 min, and then imaged with a laser scanning confocal microscope.
According to the above experimental method, the cell images of the β-elemene photoaffinity probe (Compound 2) and a control Compound 6 and β-elemene were measured.

Row | SMILES | IC50 ([1]; A549 cells, 48 h, CCK-8) [µM] | IC50 times lower than that of β-elemene [1] | IC50 ([2]; U87-MG cells, CCK-8) [µM] | IC50 ([3]; HuH-1, Huh1 cells, 48 h, CCK-8) [µM] | IC50 times lower than that of β-elemene [3] | intracellular Rhodamine Red fluorescence, with UV irradiation ([4]; 20 μM, with UV irradiation (365 nm, 15 min)) | intracellular Rhodamine Red fluorescence, without UV irradiation ([4]; 20 μM, without UV irradiation) | binding of the probe to the target ([4]; conclusion from competition imaging) | IC50 ([1]; A549, 48 h) [µM] | IC50 [2] [µM] | IC50 times lower than that of β-elemene [2] | IC50 ([3]; HuH-1, 48 h) [µM] | intensity of intracellular Rhodamine Red fluorescence of Compound 2 in presence of competitor ([4]; competitor β-elemene (50 μM) with Compound 2 (20 μM), UV irradiation) | competitive binding ([4]; versus Compound 2, conclusion from competition imaging)
1 | C#CCCC(=O)NCCOCCOCCC(=O)N[C@H](CCC1(C)N=N1)C(=O)NCCN1CCN(CC(=C)[C@@H]2CC[C@@](C)(C=C)[C@H](C(=C)C)C2)CC1 [Compound 2] | 37.8 ± 3.36 | more than 5 times | 25.5 ± 4.79 | 20.12 ± 0.16 | more than 10 times | strong intracellular Rhodamine Red fluorescence | no intracellular Rhodamine Red fluorescence | non-covalent |  |  |  |  |  | 
2 | C#CCCC(=O)NCCOCCOCCC(=O)N[C@@H](CCC1(C)N=N1)C(=O)NCCOCCOCCN1CC2CN(CC(=C)[C@@H]3CC[C@@](C)(C=C)[C@H](C(=C)C)C3)CC2C1 (stereo partly drawn) [Compound 5] |  | more than 5 times |  |  | more than 10 times |  |  |  | 28.4 ± 3.36 | 14.1 ± 1.72 | more than 10 times | 17.1 ± 0.8 |  | 
3 | C=C[C@]1(C)CC[C@@H](C(=C)C)C[C@H]1C(=C)C [β-elemene, reference compound] | 213 ± 5.29 |  | 218 ± 9.58 | 306 ± 31.7 |  |  |  |  |  |  |  |  | greatly weakened | can competitively bind to Compound 2
4 | C#CCCC(=O)NCCOCCOCCC(=O)N[C@H](CCC1(C)N=N1)C(=O)NCCOCCOCCN1CCN(CC(=C)[C@@H]2CC[C@@](C)(C=C)[C@H](C(=C)C)C2)CC1 [Compound 3] | 44.6 ± 7.68 |  | 19.3 ± 3.3 | 22.8 ± 3.07 | more than 10 times |  |  |  |  |  | more than 10 times |  |  | 
5 | C#CCCC(=O)NCCOCCOCCC(=O)N[C@H](CCC1(C)N=N1)C(=O)N1CCN(CC(=C)[C@@H]2CC[C@@](C)(C=C)[C@H](C(=C)C)C2)CC1 [Compound 1] | 29.3 ± 1.63 | more than 5 times | 38.7 ± 1.91 | 18.7 ± 1.54 | more than 10 times |  |  |  |  |  |  |  |  | 
6 | C=C[C@]1(C)CC[C@@H](C(=C)CN2CC3CN(C)CC3C2)C[C@H]1C(=C)C (stereo partly drawn) [Compound 7] |  |  |  |  | more than 10 times |  |  |  | 43.4 ± 2.14 | 23.3 ± 0.84 |  | 24.3 ± 4.02 |  | 
7 | C#CCCC(=O)NCCOCCOCCC(=O)N[C@H](CCC1(C)N=N1)C(=O)N1CC2CN(CC(=C)[C@@H]3CC[C@@](C)(C=C)[C@H](C(=C)C)C3)CC2C1 (stereo partly drawn) [Compound 4] | 48.4 ± 1.7 |  | 47.2 ± 2.21 | 54.5 ± 3.26 |  |  |  |  |  |  |  |  |  | 
